Test results: ChEMBL document CHEMBL5465560, “Selectivity Literature for EUbOPEN Chemogenomic Library” (2024)

Legend:
[1] = target: T1, Serine/threonine-protein kinase ULK3 (Homo sapiens) (UniProt Q6PHR2); assay: Selectivity interaction (KinomeScan (DiscoverX)) EUB0001049a ULK3; settings: at 1 µM
T1 sequence (whole entry): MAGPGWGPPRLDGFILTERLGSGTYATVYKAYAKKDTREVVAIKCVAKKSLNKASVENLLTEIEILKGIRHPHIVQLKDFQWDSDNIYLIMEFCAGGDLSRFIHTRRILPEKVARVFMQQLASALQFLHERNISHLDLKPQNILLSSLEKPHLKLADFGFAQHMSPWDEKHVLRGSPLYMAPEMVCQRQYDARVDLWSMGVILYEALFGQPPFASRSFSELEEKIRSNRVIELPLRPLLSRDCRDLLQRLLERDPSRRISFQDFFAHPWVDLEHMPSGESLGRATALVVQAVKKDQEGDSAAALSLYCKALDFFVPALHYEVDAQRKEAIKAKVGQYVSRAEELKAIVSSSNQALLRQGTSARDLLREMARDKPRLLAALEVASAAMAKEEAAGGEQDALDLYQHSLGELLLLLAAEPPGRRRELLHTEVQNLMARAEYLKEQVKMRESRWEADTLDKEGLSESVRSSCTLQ

[2] = Selectivity interaction (KinomeScan (DiscoverX)) EUB0001049a CDK2H; settings: at 1 µM
[3] = target: Receptor-type tyrosine-protein kinase FLT3 (Homo sapiens) (UniProt P36888); assay: Selectivity interaction (Millipore kinase profiler) EUB0000124b FLT3; settings: at 10 µM
Sequence of Receptor-type tyrosine-protein kinase FLT3 (Homo sapiens) (P36888 whole entry): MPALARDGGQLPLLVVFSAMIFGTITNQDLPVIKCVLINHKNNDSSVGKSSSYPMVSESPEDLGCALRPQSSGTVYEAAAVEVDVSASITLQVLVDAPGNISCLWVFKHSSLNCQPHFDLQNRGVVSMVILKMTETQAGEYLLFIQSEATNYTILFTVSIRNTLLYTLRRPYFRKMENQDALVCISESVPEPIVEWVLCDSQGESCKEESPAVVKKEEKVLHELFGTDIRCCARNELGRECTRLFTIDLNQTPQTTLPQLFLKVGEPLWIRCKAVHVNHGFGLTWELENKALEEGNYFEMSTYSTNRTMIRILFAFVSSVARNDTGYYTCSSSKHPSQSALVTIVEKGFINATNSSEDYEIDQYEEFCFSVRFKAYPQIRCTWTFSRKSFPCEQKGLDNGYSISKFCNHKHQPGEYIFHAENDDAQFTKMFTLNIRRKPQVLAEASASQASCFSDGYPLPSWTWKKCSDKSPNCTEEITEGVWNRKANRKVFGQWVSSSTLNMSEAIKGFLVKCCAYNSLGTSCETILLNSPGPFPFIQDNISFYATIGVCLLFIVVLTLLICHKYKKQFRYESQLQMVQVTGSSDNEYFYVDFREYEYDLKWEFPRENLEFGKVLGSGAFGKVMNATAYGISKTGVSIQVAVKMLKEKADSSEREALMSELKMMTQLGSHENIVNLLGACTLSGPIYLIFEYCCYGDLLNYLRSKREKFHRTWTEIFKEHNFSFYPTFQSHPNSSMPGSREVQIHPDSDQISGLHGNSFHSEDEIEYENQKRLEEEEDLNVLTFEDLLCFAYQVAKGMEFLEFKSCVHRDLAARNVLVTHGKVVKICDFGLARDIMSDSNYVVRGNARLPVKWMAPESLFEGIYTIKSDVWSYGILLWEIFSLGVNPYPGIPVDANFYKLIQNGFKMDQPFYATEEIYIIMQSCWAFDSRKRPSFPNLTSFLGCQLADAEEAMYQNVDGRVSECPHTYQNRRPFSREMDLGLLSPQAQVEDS

[4] = target: T2, Dual specificity mitogen-activated protein kinase kinase 3 (Homo sapiens) (UniProt P46734); assay: Selectivity interaction (Kinase panel (KiNativ target engagement assay in Jurkat cells)) EUB0001635a MAP2K3; assay type: cell-based; settings: at 1 µM
T2 sequence (whole entry): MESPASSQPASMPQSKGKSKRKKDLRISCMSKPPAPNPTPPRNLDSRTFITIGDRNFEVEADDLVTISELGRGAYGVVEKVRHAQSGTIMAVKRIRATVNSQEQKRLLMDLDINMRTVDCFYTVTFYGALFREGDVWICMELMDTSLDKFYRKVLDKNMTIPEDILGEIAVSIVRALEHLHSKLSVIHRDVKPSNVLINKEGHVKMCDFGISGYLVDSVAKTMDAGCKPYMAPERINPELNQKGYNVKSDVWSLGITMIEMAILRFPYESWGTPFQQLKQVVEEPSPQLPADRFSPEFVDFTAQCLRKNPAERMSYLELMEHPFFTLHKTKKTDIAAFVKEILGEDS

[5] = target: Ribosomal protein S6 kinase alpha-1 (Homo sapiens, UniProt Q15418); settings: at 10 µM
Sequence of Ribosomal protein S6 kinase alpha-1 (Q15418 whole entry): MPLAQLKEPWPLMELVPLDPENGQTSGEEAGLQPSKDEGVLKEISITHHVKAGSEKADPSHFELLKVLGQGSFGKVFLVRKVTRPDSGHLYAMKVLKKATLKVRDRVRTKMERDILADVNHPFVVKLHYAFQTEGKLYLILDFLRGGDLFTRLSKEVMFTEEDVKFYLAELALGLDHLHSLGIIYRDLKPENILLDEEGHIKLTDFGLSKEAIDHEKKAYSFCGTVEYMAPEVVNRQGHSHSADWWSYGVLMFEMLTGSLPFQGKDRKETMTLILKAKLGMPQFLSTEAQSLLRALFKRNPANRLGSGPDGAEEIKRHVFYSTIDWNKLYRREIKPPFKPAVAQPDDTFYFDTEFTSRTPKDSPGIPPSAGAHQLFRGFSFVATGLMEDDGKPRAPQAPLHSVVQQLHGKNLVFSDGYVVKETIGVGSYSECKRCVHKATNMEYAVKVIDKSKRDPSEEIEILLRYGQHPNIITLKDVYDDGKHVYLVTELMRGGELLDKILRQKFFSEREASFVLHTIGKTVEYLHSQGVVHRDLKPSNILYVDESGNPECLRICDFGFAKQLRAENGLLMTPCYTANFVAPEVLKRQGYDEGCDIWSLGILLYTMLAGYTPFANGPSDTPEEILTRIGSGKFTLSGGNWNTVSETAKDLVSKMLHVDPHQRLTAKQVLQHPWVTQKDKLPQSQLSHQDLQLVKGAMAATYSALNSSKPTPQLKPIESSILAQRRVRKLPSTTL

[6] = target: T3, Cyclin-dependent kinase 11A (Homo sapiens) (UniProt Q9UQ88); assay: Selectivity interaction (ActivX KiNativ screen (kinase selectivity in THP-1 cell lysates)) EUB0000639a CDK11A; assay type: subcellular; settings: lysate, at 1 µM
T3 sequence (whole entry): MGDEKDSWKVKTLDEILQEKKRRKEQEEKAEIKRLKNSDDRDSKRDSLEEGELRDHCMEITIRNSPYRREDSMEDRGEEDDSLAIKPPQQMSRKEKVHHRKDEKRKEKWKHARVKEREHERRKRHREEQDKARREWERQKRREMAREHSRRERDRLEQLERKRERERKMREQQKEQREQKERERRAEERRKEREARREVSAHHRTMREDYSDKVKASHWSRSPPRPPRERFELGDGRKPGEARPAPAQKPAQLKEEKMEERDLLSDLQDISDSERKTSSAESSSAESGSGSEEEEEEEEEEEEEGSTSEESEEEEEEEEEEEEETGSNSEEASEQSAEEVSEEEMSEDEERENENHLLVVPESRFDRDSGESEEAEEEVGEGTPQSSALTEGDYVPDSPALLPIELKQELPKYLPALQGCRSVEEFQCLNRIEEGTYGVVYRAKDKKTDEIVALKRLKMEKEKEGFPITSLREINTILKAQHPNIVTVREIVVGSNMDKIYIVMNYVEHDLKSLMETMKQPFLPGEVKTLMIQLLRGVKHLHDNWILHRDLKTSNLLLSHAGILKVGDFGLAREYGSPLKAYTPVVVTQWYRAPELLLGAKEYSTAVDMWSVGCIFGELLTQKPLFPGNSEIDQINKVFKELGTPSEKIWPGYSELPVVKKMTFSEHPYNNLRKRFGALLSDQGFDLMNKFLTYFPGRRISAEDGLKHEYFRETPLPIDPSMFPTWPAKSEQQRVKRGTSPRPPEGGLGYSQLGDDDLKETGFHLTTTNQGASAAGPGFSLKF

[7] = target: Dual specificity mitogen-activated protein kinase kinase 1 (Homo sapiens, UniProt Q02750); settings: at 10 µM
Sequence of Dual specificity mitogen-activated protein kinase kinase 1 (Q02750 whole entry): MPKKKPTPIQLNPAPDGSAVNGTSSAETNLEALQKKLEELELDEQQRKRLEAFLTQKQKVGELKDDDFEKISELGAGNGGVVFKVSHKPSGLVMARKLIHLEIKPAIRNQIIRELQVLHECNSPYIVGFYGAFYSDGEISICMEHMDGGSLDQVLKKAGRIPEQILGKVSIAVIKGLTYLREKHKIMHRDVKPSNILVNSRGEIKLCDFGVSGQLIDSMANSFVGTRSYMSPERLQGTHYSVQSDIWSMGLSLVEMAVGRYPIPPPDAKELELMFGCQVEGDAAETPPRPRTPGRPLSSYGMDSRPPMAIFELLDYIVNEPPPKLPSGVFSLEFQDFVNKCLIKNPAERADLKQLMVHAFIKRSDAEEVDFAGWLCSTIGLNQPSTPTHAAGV

[8] = test system: Epidermal growth factor receptor (Homo sapiens), P00533 [UNDEFINED MUTATION]; settings: at 10 µM
[9] = target: Cyclin-dependent kinase 4/cyclin D1 (Homo sapiens, UniProt P11802)
Sequence of Cyclin-dependent kinase 4/cyclin D1 (P11802 whole entry): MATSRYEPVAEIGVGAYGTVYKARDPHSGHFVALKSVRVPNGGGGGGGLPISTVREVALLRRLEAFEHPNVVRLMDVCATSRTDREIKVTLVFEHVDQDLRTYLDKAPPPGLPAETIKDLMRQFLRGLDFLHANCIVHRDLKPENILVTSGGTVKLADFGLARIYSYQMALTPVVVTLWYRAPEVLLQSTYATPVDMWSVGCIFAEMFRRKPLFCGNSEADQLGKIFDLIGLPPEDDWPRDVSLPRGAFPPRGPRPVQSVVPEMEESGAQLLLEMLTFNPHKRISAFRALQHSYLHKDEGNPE
Sequence of Cyclin-dependent kinase 4/cyclin D1 (P24385 whole entry, further chain): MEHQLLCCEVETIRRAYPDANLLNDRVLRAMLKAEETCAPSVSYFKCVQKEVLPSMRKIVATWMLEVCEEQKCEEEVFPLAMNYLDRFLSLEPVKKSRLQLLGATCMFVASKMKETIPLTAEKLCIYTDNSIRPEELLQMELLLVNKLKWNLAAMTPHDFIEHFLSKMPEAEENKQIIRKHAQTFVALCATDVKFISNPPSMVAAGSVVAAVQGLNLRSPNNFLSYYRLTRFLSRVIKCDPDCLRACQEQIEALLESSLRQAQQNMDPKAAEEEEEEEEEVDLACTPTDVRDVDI

[10] = target: Putative phosphatidylinositol 4-kinase alpha-like protein P2 (Homo sapiens) (UniProt A4QPH2); assay: Selectivity interaction (ActivX KiNativ screen (ex vivo kinase selectivity in human PBMCs)) EUB0001619a PI4KAP2; assay type: cell-based; settings: PBMC, at 1 µM
[11] = target: Rho-associated protein kinase 2 (Homo sapiens, UniProt O75116); assay: Selectivity interaction (SelectScreen profiling (Invitrogen)) EUB0000607a ROCK2; settings: at 2 µM
Sequence of Rho-associated protein kinase 2 (O75116 whole entry, looked up): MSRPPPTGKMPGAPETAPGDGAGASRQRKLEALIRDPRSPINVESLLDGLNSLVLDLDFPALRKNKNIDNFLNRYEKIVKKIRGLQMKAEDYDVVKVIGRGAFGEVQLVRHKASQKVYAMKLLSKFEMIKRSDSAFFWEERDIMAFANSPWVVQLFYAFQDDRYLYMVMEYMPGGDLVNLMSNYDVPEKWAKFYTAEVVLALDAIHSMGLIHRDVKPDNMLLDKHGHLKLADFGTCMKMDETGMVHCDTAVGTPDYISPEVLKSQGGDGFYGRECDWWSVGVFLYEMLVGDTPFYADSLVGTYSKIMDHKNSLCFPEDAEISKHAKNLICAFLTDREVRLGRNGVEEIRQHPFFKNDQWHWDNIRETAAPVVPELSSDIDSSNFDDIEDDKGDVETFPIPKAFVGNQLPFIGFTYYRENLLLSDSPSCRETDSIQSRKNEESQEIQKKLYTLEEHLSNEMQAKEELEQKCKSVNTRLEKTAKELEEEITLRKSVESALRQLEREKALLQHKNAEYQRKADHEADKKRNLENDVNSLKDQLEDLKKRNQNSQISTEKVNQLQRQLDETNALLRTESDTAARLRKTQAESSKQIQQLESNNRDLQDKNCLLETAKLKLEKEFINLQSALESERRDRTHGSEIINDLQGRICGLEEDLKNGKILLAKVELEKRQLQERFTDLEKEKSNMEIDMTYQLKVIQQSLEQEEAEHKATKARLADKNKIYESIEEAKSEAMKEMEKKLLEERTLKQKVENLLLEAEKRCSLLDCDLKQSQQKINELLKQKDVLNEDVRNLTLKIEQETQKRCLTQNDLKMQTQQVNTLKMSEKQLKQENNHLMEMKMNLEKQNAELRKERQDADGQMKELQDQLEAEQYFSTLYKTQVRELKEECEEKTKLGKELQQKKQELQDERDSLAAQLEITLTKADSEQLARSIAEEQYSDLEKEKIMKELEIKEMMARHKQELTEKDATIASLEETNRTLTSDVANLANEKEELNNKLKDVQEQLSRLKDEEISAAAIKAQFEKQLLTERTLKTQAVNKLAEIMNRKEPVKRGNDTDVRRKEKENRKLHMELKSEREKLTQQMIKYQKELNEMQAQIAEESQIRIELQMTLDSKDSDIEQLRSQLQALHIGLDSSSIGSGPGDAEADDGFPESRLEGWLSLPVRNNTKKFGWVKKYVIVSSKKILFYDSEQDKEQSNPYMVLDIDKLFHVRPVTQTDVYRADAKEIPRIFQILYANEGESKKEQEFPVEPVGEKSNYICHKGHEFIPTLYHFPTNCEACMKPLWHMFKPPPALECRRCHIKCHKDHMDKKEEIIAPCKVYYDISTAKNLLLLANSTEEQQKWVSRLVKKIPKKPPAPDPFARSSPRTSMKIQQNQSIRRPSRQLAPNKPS

[12] = target: Ribosomal protein S6 kinase alpha-2 (Homo sapiens) (UniProt Q15349); assay: Selectivity interaction (KinomeScan (DiscoverX)) EUB0000607a RPS6KA2; settings: at 10 µM
Sequence of Ribosomal protein S6 kinase alpha-2 (Homo sapiens) (Q15349 whole entry): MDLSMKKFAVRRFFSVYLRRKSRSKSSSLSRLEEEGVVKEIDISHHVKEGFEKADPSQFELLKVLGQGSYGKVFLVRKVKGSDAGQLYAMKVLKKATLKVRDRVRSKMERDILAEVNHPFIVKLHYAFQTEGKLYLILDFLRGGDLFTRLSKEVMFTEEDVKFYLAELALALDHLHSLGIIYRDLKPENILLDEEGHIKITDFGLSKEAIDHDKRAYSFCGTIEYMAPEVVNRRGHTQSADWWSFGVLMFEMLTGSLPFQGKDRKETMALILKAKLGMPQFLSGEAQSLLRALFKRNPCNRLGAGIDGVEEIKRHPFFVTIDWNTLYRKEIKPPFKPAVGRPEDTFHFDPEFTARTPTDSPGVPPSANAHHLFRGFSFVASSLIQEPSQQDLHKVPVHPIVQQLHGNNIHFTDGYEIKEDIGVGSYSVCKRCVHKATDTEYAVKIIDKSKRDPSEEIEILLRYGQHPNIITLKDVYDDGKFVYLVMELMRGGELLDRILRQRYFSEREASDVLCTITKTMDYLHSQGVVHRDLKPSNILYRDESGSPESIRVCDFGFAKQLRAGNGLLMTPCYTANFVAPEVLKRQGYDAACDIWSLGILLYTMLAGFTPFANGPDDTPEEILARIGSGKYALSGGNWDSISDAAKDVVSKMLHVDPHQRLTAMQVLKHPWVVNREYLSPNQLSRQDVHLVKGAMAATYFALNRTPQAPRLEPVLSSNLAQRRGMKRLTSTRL

[13] = target: Histone-lysine N-methyltransferase, H3 lysine-36 specific (Homo sapiens) (UniProt Q96L73); assay: Selectivity interaction (Methyltransferase screen (radiometric assays, panel of 8 PRMTs, 21 protein lysine methyltransferases, 3 DNA methyltransferases, and one RNA methyltransferase)) EUB0000272b NSD1; settings: at 10 µM

## COc1cc(Nc2nc(C)cc(-c3cnn4nc(OC)ccc34)n2)cc(C(F)(F)F)c1
[1]
  % of control: 79%
[2]
  % of control: 100%

## CC(=O)Nc1cccc(-n2c(=O)n(C3CC3)c(=O)c3c(Nc4ccc(I)cc4F)n(C)c(=O)c(C)c32)c1
[3]
  % of control: 107%

## C=CC(=O)Nc1ccc(C(=O)Nc2[nH]nc3c2CN(C(=O)N[C@H](CN(C)C)c2ccccc2)C3(C)C)cc1
[4]; Selectivity number of off-targets 0.0, Selectivity number of targets 233.0, Source Knowledge https://www.sciencedirect.com/science/article/pii/S2451945619300674?via%3Dihub
  % of engagement: 8.4%
[4]
  % of engagement: -7.7%

## CCN(CC)CCCCNc1ncc2cc(-c3cc(OC)cc(OC)c3)c(NC(=O)NC(C)(C)C)nc2n1
[5]
  % of control: 100%

## CC[C@@H]1[C@H](F)C(=O)N[C@@H]1COc1nccc2cc(C(N)=O)c(OC)cc12 [ZIMLOVISERTIB]
[6]
  % of inhibition: 6.7%

## Cc1cc([C@@H](C)Nc2ccccc2C(=O)O)c2nc(N3CCOCC3)cc(=O)n2c1 [AZD-6482]
[7]
  % of control: 89%
[8]
  % of control: 100%

## CCc1cccc(CC)c1NC(=O)c1nn(C)c2c1CCc1cnc(Nc3ccc(C(=O)NC4CCN(C)CC4)cc3OC(F)(F)F)nc1-2
[9]
  IC50: > 10 µM

## N#Cc1cccc(-c2c[nH]c3ncnc(N4CCOCC4)c23)c1
[10]
  % of inhibition: 6%

## CNC(=O)Nc1ccc(-c2nc(N3CC4CCC(C3)O4)c3cnn(C4CCC5(CC4)OCCO5)c3n2)cc1
[11]
  % of inhibition: 5%
[12]
  % of control: 100%

## Cc1cc(C)cc([C@H]2c3cc(C)ccc3NC(=O)CN2C(=O)c2ccc(Br)s2)c1
[13]
  % of activity: 104%
